From patent US10058526B2, “Compositions containing pheromones for treating behavioural or medical problems linked to the stress of non-human mammals” (CEVA SANTE ANIMALE, priority 2014, dated 2018)
Where a name gives a salt, the structure may show the parent alone.

assay: Diffusion of solvents in a 5.6 W electric diffuser (Example 1); format: physicochemical; conditions: 48 ml solvent, average per day over 30 days
Experimental: 48 ml of solvent to be tested are placed in a 5.6 W electric diffuser. The amount of solvent diffused is measured for 30 days following plugging in of the diffuser, and the average diffusion of product per day is calculated and summarized in Table 1 below: […]

For `CO[C@H]1CO[C@H]2[C@@H]1OC[C@H]2OC` [Isosorbide dimethyl ether], which “Diffusion of product” value is on record?
Its value is 2 g/day.

For Glycofurol, which “Diffusion of product” value is on record?
Its value is 0.5 g/day.

With `CC(C)OC(=O)CCCCCCCCC(=O)OC(C)C` [Diisopropyl sebacate] as the molecule, how does the “Diffusion of product” value read?
The value was 1 g/day.

Which “Diffusion of product” value does the source give for `CC1COC(=O)O1` (stereo not shown) [Propylene carbonate] here?
Its value is 4 g/day.

Which “Diffusion of product” value does the source give for `CC(C)CCCCCCOC(=O)CCCCCC(C)C` [Isononyl isononanoate] here?
The value was 2 g/day.

For `CCOC(=O)CC(O)(CC(=O)OCC)C(=O)OCC` [Triethyl citrate], which “Diffusion of product” value is on record?
Its value is 1 g/day.

For `CCCCCCCCCCCCCC(=O)OC(C)C` [Isopropyl myristate], which “Diffusion of product” value is on record?
Its value is 1 g/day.
